Test: Partition of compound A and compound B between aqueous layer and toluene layer in the presence of various acids
Conditions: 40° C., 1 hour
Experimental: Thus-obtained mixed solvent was separated into aqueous layer and toluene layer, and then the concentrations of compound A and B in each layer were measured. Partition coefficients Ka or Kb are calculated according to the following equation. Ka=(Concentration of the compound A in aqueous layer)/(Concentration of the compound A in toluene layer) Kb=(Concentration of the compound B in aqueous layer)/(Concentration of the compound B in toluene layer)

Compound: CN(C)CCC[C@](O)(c1ccc(F)cc1)c1ccc(C#N)cc1CO [compound A, (S)-4-[4-dimethylamino-1-(4′-fluorophenyl)-1-hydroxybutyl]-3-hydroxymethylbenzonitrile]
- Partition coefficient Ka (3-Phenylpropionic acid): 5.67
- Partition coefficient Ka (4-Biphenylcarboxylic acid): 0.87
- Partition coefficient Ka (Benzoic acid): 18.4
- Partition coefficient Ka (Caproic acid): 5.04
- Partition coefficient Ka (Cyclohexanecarboxylic acid): 3.89
- Partition coefficient Ka (Isobutyric acid): 39.2
- Partition coefficient Ka (Isophthalic acid): 7.43
- Partition coefficient Ka (Isovaleric acid): 24.4
- Partition coefficient Ka (Maleic acid): 31.1
- Partition coefficient Ka (Malonic acid): 38.5
- Partition coefficient Ka (Oxalic acid): 1092
- Partition coefficient Ka (Phthalic acid): 20.8
- Partition coefficient Ka (Pivalic acid): 9.03
- Partition coefficient Ka (Salicylic acid): 13.0
- Partition coefficient Ka (Succinic acid): 24.1
- Partition coefficient Ka (Terephthalic acid): 16.8
- Partition coefficient Ka (acid: None): 0.17
- Partition coefficient Ka (m-Chlorobenzoic acid): 4.98
- Partition coefficient Ka (m-Methoxybenzoic acid): 9.23
- Partition coefficient Ka (m-Nitrobenzoic acid): 19.5
- Partition coefficient Ka (m-Toluic acid): 6.00
- Partition coefficient Ka (o-Chlorobenzoic acid): 22.8
- Partition coefficient Ka (o-Methoxybenzoic acid): 27.1
- Partition coefficient Ka (o-Nitrobenzoic acid): 30.7
- Partition coefficient Ka (o-Toluic acid): 9.11
- Partition coefficient Ka (p-Chlorobenzoic acid): 7.01
- Partition coefficient Ka (p-Ethylbenzoic acid): 2.28
- Partition coefficient Ka (p-Fluorobenzoic acid): 14.4
- Partition coefficient Ka (p-Hydroxybenzoic acid): 70.8
- Partition coefficient Ka (p-Methoxybenzoic acid): 12.3
- Partition coefficient Ka (p-Toluenesulfonic acid): 164
- Partition coefficient Ka (p-Toluic acid): 5.97
